Legend:
[1] = tested on: Mycobacterium tuberculosis; type: cell-based
[2] = tested on: strains having mutations of 511 (Leu>Pro), 516 (Asp>Tyr), 516 (Asp>Val), and 522 (Ser>Leu); settings: strains with mutations 511 (Leu>Pro); cited from earlier work

Compound: CO[C@H]1/C=C/O[C@@]2(C)Oc3c(C)c(O)c4c(c3C2=O)C2=NC3(CCN(CC(C)C)CC3)NC2=C(NC(=O)/C(C)=C\C=C\[C@H](C)[C@H](O)[C@@H](C)[C@@H](O)[C@@H](C)[C@H](OC(C)=O)[C@@H]1C)C4=O [rifabutin, Rifabutin]
- drug-susceptibility test result [1]: resistance
- resistance classification [2]: low-level resistance
- rifabutin MIC [2]: ≤ 5 µg/mL

— patent publication US20040038233A1, “Diagnosis kit for mycobacterium species indentification and drug-resistance detection and manufacturing method thereof” (priority 2000, published 2004)
